Results reported in patent publication US20170327598A1, “SINGLE DOMAIN ANTIBODIES DIRECTED AGAINST INTRACELLULAR ANTIGENS” (SINGH MOLECULAR MEDICINE, LLC, priority 2014, published 2017).
Values joined by “and” are separate entries in the source; they are usually repeats but may differ in a detail not shown here. Equal entries are not always repeated. Values belong to the molecule of their own block, whether it stands above or below them.

Legend:
[1] = tested on: STAT3 reporter, induction by interleukin-6; assay: STAT3 reporter GloResponse SIE-luc2P/HEK293 cell assay, IL-6 induction; format: cell-based; details: for effect on IL-6 induction of STAT3 reporter: 24 hours and 48 hours treatment prior to IL-6;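 for all read-outs here: IL-6 added at 40 ng/mL (EC80) for roughly one day after pretreatment, luciferase luminescence read with Bio-Glo reagent, untreated +IL6 wells serve as control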
[2] = tested on: GloResponse SIE-luc2P/HEK 293 cells; assay: BCA protein concentration of reporter cells run in parallel; format: cell-based
[3] = biological target: T1, endogenous STAT3 (Homo sapiens, UniProt P40763); assay: Immunoprecipitation of endogenous STAT3 from MDA-MB-231 lysate, Western blot; format: binding; details: FIG. 3
T1 construct: endogenous STAT3 immunoprecipitated with all sdAbs tested at varying amounts; endogenous in cells
Protocol: The specificity of STAT3 sdAbs was assayed in human breast cancer cells. […] The cells were then disrupted in freshly prepared ice-cold lysis buffer (20 mM HEPES, pH 7.9, 400 mM NaCl, 0.1% NP-40, 10% glycerol, 1 mM sodium vanadate, 1 mM sodium fluoride, 1 mM dithiothreitol, 1 mM phenylmethylsulfonyl fluoride, 10 μg/mL aprotinin, 10 μg/mL leupeptin) for 45 minutes on ice. Lysates were then centrifuged, the supernatant collected, and protein concentration was determined using a modified Lowry method (Bio Rad, Hercules, Calif.). Total protein (1 mg) was incubated with 1.5 mg of Dynabeads (Invitrogen) with sdAbs against STAT3, a positive control (STAT3, cat#SC-482, Santa Cruz Biotechnology, Dallas, Tex.), or negative control (STAT-1, cat#9172, Cell Signaling, Danvers, Mass.) for 1 hour at 4° C. Beads were then washed. Following the final wash, 60 μl of lysis buffer was added, and the resulting supernatant was subject to Western blot analysis. Briefly, samples were separated on 10% polyacrylamide gels and transferred to a nitrocellulose membrane. The membranes were blocked, then incubated with appropriate primary and secondary antibodies. Anti-STAT3 antibody, used as a positive control, was from Cell Signaling (Cat#4904, Danvers, Mass.). The chemiluminescence reaction was performed using the ECL system from Santa Cruz Biotechnology (Dallas, Tex.).

[4] = tested on: PANC-1 xenograft; assay: PANC-1 xenograft, sdAb alone, Gemcitabine alone or combination, Example 19; details: for BODY WEIGHT (g) Mean / TUMOR VOLUMES (mm^3) Mean / % INHIBITION OF CONTROL (tumor growth): SBT-100 5 mg/kg BID, Gemcitabine 20 mg/kg, or both
[5] = tested on: PANC-1 cells; assay: PANC-1 growth inhibition with or without Gemcitabine; details: for Absorbance: 72 hours
[6] = biological target: T2, active human TNF-α full length protein (Homo sapiens, UniProt P01375); assay: TNF ELISA, binding of anti-TNF-α sdAbs to coated TNF-α protein; details: for detection in coated versus non-coated wells: 1 μg/mL sdAb, 0.5 μg/mL coating antigen; for binding to the TNF-α protein, detection: Experiment 1, 1 μg/mL sdAb; for OD450 Values: Non-Coated wells, sdAb 1 μg/mL, non-specific binding
T2 construct: purchased Abcam
Protocol: In this Example, the binding of anti-TNF-α sdAbs to active human TNF-α full length protein was assessed using an enzyme linked immunosorbent assay (ELISA) format. Additionally, the feasibility of utilizing a secondary antibody targeted to the his tag portion of the sdAbs was assessed.
Plates were incubated overnight at 2-8° C. After the incubation, plates were washed (3×) and blocked (3% Bovine Serum Albumin (BSA) in Phosphate Buffered Saline (PBS)) for at least one hour at room temperature.
After removal of the blocking buffer and washing (3×), samples were added to the appropriate wells of the ELISA plates and incubated at room temperature with shaking (150 rpm) for at least one hour. The secondary antibody (rabbit anti-llama biotinylated antibody at either a 1:5,000 or 10,000 dilution) was then added to each well and incubated with shaking for at least one hour at room temperature.
After the incubation with secondary antibody, the plates were again washed (3×) and horseradish peroxidase (HRP) at either a 1:25,000 or 1:50,000 dilution was added to each well. Plates were incubated with shaking for at least one hour at room temperature. A final wash (3×) was performed followed by the addition of TMB (Tetramethylbenzidine) substrate. After a 20 to 25 minute incubation at room temperature, stop solution was added to halt the colorimetric reaction. The absorbance at 450 nm was measured on a VersaMax instrument utilizing SoftMax Pro GxP version 5.4 software from Molecular Devices (Sunnyvale, Calif.).
The final experiment performed was to confirm that the results from the ELISA testing were due to binding to the TNF-α protein and not non-specific binding of the sdAb. For this determination, a comparison was made between wells coated with 0.5 μg/mL of coating antigen and non-coated wells. […] This experiment confirms that the detection seen with the previous experiments was due to the specific binding of the VHH to the coating antigen and not due to non-specific binding.

[7] = tested on: rabbit anti-llama biotinylated antibody or his-probe (H-3) biotin labeled antibody; assay: ELISA with sdAbs coated, binding of secondary antibodies (Experiments 2 and 3)
Protocol: Two assays (Experiment 2 and 3) were performed to assess the binding of the secondary antibody to the sdAbs. A similar ELISA method was utilized except the sdAbs were directly coated onto the assay plate at a concentration of 1 μg/mL. Plates were incubated overnight at 2-8° C. After the incubation, plates were washed (3×) and blocked (3% BSA in PBS) for at least one hour at room temperature.
After removal of the blocking buffer and washing (3×), the secondary antibodies, either rabbit anti-llama biotinylated antibody or his-probe (H-3) biotin labeled antibody at was then added at a 1:5,000 dilution to each well and incubated with shaking for at least one hour at room temperature. Only the rabbit anti-llama biotinylated antibody was used in Experiment 2. Both antibodies were run in parallel in Experiment 3.
After the incubation with secondary antibody, the plates were again washed (3×) and HRP at a 1:50,000 dilution was added to each well. Plates were incubated with shaking for at least one hour at room temperature. One last wash (3×) was performed followed by the addition of TMB substrate and plates were incubated at room temperature. For the anti-llama biotinylated antibody stop solution was added to halt the colorimetric reaction at 10 minutes. The his-probe (H-3) biotin labeled antibody was allowed to incubate for 20 minutes prior to stopping. The absorbance at 450 nm was measured as before.

[8] = 24 Hour Treatment Prior to IL6 Induction, high conc.: VHH13 55.8 μg/mL, VHH14 84.3 μg/mL, BB1608 4.16 μM, VHH69 50.5 μg/mL
[9] = 24 Hour Treatment Prior to IL6 Induction, low conc.: VHH13, VHH14, VHH69 10 μg/mL, BB1608 2 μM
[10] = 48 Hour Treatment Prior to IL6 Induction, high conc.: VHH13 55.8 μg/mL, VHH14 84.3 μg/mL, BB1608 4.16 μM, VHH69 50.5 μg/mL
[11] = 48 Hour Treatment Prior to IL6 Induction, low conc.: VHH13, VHH14, VHH69 10 μg/mL, BB1608 2 μM
[12] = His-probe (H-3), Experiment 3, stored 1:100 dilution of sdAb
[13] = Rabbit anti-Llama Secondary Antibody, Experiment 2, sdAb coated at 1 μg/mL
[14] = Rabbit anti-Llama Secondary Antibody, Experiment 3, stored 1:100 dilution of sdAb

T2 sequence (P01375 77-233 limits assumed): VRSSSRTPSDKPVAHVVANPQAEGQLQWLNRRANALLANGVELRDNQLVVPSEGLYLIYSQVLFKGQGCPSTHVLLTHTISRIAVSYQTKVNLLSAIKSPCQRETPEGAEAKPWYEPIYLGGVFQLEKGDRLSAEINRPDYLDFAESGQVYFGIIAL
T1 sequence (P40763 whole entry): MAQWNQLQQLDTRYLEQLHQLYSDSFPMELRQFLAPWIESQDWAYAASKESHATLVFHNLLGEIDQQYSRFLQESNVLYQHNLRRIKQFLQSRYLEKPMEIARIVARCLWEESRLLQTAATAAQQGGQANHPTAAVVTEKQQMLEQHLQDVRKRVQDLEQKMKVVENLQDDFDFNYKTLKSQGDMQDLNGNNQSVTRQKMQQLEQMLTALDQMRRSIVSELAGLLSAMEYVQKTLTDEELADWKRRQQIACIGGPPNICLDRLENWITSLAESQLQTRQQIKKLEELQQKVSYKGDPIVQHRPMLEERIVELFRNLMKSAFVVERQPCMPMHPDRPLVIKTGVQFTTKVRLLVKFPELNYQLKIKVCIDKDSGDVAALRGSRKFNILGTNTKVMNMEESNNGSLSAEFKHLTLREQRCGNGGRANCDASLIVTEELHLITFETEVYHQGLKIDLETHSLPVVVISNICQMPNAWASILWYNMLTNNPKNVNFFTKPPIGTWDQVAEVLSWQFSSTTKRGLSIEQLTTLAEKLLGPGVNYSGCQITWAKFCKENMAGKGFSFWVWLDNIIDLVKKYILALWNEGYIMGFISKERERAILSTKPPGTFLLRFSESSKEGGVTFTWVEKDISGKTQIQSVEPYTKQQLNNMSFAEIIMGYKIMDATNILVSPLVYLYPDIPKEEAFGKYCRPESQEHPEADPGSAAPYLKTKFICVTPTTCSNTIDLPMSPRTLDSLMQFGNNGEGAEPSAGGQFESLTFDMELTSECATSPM

Molecule: CC(=O)c1cc2c(o1)C(=O)c1ccccc1C2=O [BB1608, napabucasin, reference compound]
Average RLU [1, 8]: 33 RLU | Average RLU with Media Blank [1, 8]: 8 RLU | Fold-Induction RLU/RLU of-IL6 [1, 8]: 0 | Luminescence (RLU), single wells [1, 8]: 41 RLU and 28 RLU and 31 RLU | Average RLU [1, 9]: 38 RLU | Average RLU with Media Blank [1, 9]: 12 RLU | Fold-Induction RLU/RLU of-IL6 [1, 9]: 0 | Luminescence (RLU), single wells [1, 9]: 41 RLU and 33 RLU and 39 RLU | Average RLU [1, 10]: 29 RLU | Average RLU with Media Blank [1, 10]: −3 RLU | Fold-Induction RLU/RLU of−IL6 [1, 10]: 0 | Luminescence (RLU), single wells [1, 10]: 25 RLU and 31 RLU and 32 RLU | Average RLU [1, 11]: 33 RLU | Average RLU with Media Blank [1, 11]: 0 RLU | Fold-Induction RLU/RLU of−IL6 [1, 11]: 0 | Luminescence (RLU), single wells [1, 11]: 26 RLU and 42 RLU and 31 RLU | effect on IL-6 induction of STAT3 reporter [1]: Inhibition of IL-6 | Protein concentration [2, 8]: 174 | Protein concentration [2, 9]: 425 | Protein concentration [2, 10]: 165 | Protein concentration [2, 11]: 324

immunoprecipitation of endogenous STAT3 [3]: no band
Molecule: STAT-1: negative control in immunoprecipitation (STAT-1, cat#9172, Cell Signaling) [reference compound]

Molecule: Nc1ccn([C@@H]2O[C@H](CO)[C@@H](O)C2(F)F)c(=O)n1 [Gemcitabine]
Mean Tumour Size (mm^3) Day 1 ([4]; Day 1 (start of treatment), SBT-100 5 mg/kg IP BID × 14, Gemcitabine 20 mg/kg IP QD × 7, or both): 122.23 ± 23.46 mm^3 | BODY WEIGHT (g) Mean ([4]; Day 1): 23.77 g | TUMOR VOLUMES (mm^3) Mean ([4]; Day 1): 122.23 mm^3 | BODY WEIGHT (g) Mean ([4]; Day 5): 23.47 g | TUMOR VOLUMES (mm^3) Mean ([4]; Day 5): 165.57 mm^3 | BODY WEIGHT (g) Mean ([4]; Day 8): 23.37 g | TUMOR VOLUMES (mm^3) Mean ([4]; Day 8): 183.88 mm^3 | % INHIBITION OF CONTROL (tumor growth) ([4]; Day 12): 19.51% | BODY WEIGHT (g) Mean ([4]; Day 12): 23.13 g | TUMOR VOLUMES (mm^3) Mean ([4]; Day 12): 191.6 mm^3 | % INHIBITION OF CONTROL (tumor growth) ([4]; Day 15): 23.17% | TUMOR VOLUMES (mm^3) Mean ([4]; Day 15): 246.48 mm^3 | % INHIBITION OF CONTROL (tumor growth) ([4]; Day 19): 23.26% | BODY WEIGHT (g) Mean ([4]; Day 19): 23.97 g | TUMOR VOLUMES (mm^3) Mean ([4]; Day 19): 312.74 mm^3 | % INHIBITION OF CONTROL (tumor growth) ([4]; Day 22): 14.93% | BODY WEIGHT (g) Mean ([4]; Day 22): 24.55 g | TUMOR VOLUMES (mm^3) Mean ([4]; Day 22): 411.93 mm^3 | Absorbance ([5]; Gemcitabine 0.020 μM in DMSO): 1.560 | Absorbance ([5]; Gemcitabine 0.039 μM in DMSO): 1.240 | Absorbance ([5]; Gemcitabine 0.625 μM in DMSO): 1.050 | Absorbance ([5]; Gemcitabine 5 μM in DMSO): 0.631 | Absorbance ([5]; Gemcitabine 10 μM in DMSO): 0.543 | IC50 ([5]; Homo sapiens, PANC-1, read-out: IC50 concentration): 10 µM

binding to the TNF-α protein, detection [6]: little to no detection | OD450 Values [6]: 0.007 | OD450 Values [7, 12]: 0.153 | OD450 Values [7, 13]: 0.499 | OD450 Values [7, 14]: 0.443
B1: anti-TNF-alpha VHH69: second anti-TNF-alpha single domain antibody, SEQ ID NO:46 (protein)
VHH: EVQLVESGGGSVLAGGSLRLSCVASGFTSRYNYMAWFRQAPGKEREGVATIGTASGSADYYGSVKDRFTISQDNAKNTVYLQMNSLKPEDTAMYYCAARTYGTISLTPSDYRYWGQGTLVTVSS
modifications: Camelid
detection in coated versus non-coated wells [6]: detected in coated wells but not in non-coated wells | Average RLU [1, 8]: 198596 RLU | Average RLU with Media Blank [1, 8]: 198571 RLU | Fold-Induction RLU/RLU of-IL6 [1, 8]: 434 | Luminescence (RLU), single wells [1, 8]: 203139 RLU and 194320 RLU and 198330 RLU | Average RLU [1, 9]: 169752 RLU | Average RLU with Media Blank [1, 9]: 169726 RLU | Fold-Induction RLU/RLU of-IL6 [1, 9]: 371 | Luminescence (RLU), single wells [1, 9]: 159115 RLU and 184364 RLU and 165776 RLU | Average RLU [1, 10]: 225726 RLU | Average RLU with Media Blank [1, 10]: 225694 RLU | Fold-Induction RLU/RLU of−IL6 [1, 10]: 452 | Luminescence (RLU), single wells [1, 10]: 237816 RLU and 220259 RLU and 219104 RLU | Average RLU [1, 11]: 172988 RLU | Average RLU with Media Blank [1, 11]: 172955 RLU | Fold-Induction RLU/RLU of−IL6 [1, 11]: 347 | Luminescence (RLU), single wells [1, 11]: 191241 RLU and 171796 RLU and 155927 RLU | effect on IL-6 induction of STAT3 reporter [1]: enhancement of the IL-6 induction | Protein concentration [2, 8]: 213 | Protein concentration [2, 9]: 237 | Protein concentration [2, 11]: 222

binding to the TNF-α protein, detection [6]: little to no detection | OD values ([6]; Experiment 4, 10-fold serial dilutions starting at 1 μg/mL): < 0.2 OD450 | OD450 Values [6]: −0.001 | OD450 Values [7, 12]: 0.196 | OD450 Values [7, 13]: 1.485 | OD450 Values [7, 14]: 2.341
B2: anti-TNF-alpha VHH62: third anti-TNF-alpha single domain antibody, SEQ ID NO:47 (protein)
VHH: QVQLVESGGGPVQAGETLRLSCTASGFTFAEADMGWYRQAPGHECELVSTITTEGITSEASSYYADSVRGRFTISRDNAKNMVYLQMNSLKPEDTAVYYCAPDPYAYSTYSDYCSWAQGTQGTLVTVSS
modifications: Camelid
detection in coated versus non-coated wells [6]: not detected in either coated or non-coated wells
